# Values quoted from earlier work, collected in patent US20110250260A1, “INHIBITION OF BRAIN ENZYMES INOLVED IN CEREBRAL AMYLOID ANGIOPATHY AND MACULAR DEGENERATION” (Loma Linda University Medical Center, priority 2006, published 2011).
# Where a SMILES comes first, the peptide text is derived from it. The star is where a group is joined. Cbz = O=C(OCc1ccccc1)*; CH2F = FC*
# What was measured:
# [1] = system: heart failure in a murine model
# [2] = system: liver function during hepatitis C virus infection; conditions: human trials
# [3] = system: cell death after ischemia in multiple tissues; conditions: animal models
# Heme oxidase = conditions: experimental brain hematomas
compound,measurement,setting,value
Cc1c(C(=O)N[C@H](C(=O)NC(CC(=O)O)C(=O)CF)C(C)C)n(C)c2ccccc12 (stereo partly shown) [IDN-1965],mortality,[1]; compared with vehicle-treated mice,eliminate the 30% mortality
same,reduction of caspase 3-like activity,[1]; continuous infusion,90%
same,reduction of terminal dUTP nick end-labeling-positive myocytes,[1]; continuous infusion,90%
C[C@H](NC(=O)C(=O)Nc1ccccc1C(C)(C)C)C(=O)N[C@@H](CC(=O)O)C(=O)COc1c(F)c(F)cc(F)c1F [IDN-6556],preserving liver function,[2],showing promise
same,side-effects,[2],without exhibiting serious side-effects
COC(=O)C[C@H](NC(=O)[C@H](C)NC(=O)[C@@H](NC(=O)OCc1ccccc1)C(C)C)C(=O)CF [zVAD-FMK] (Cbz-Val-Ala-Asp(OMe)-CH2F),reducing cell death after ischemia,[3],highly effective
tin-mesoporphyrin,effects to the brain of heme oxidase inhibition,Heme oxidase,beneficial effects to the brain
